These results are taken from US7608716B2, “Pyrazolonaphthyridine derivative” (Aska Pharmaceutical Co., Ltd., priority 2002, dated 2009).

The test system of data set [1] is T1, PDE IV isozymes separated from U937 culture cells.
T1 construct: PDE IV isozymes as used herein were separated from U937 culture cells by using an anion exchange chromatography
Kind of data set: PDE IV inhibition ([3H]-cAMP hydrolysis). Format: biochemical. Conditions: cAMP 1 μM substrate, 30° C., 20 minutes. As to the method:
PDE IV isozymes as used herein were separated from U937 culture cells by using an anion exchange chromatography. Type IV PDE isozyme was admixed with ethylene glycol (EG) to adjust the final EG concentration to 30%, then stored at −20° C. and diluted when used. The enzymatic activity for PDE IV was measured using cAMP as a substrate.
Each test compound was dissolved in DMSO to adjust the final concentration to 1% (2.5 μl/tube).
Incubation Buffer Solution (pH7.5):
• Tris-HCl (50 mM), magnesium chloride (6 mM), dithiothreitol (2.5 mM), 5-nucleotidase (4 μg/ml), bovine serum albumin (0.23 mg/ml), and cAMP (1 μM).
A mixture of the aforementioned test compound solution and the buffer solution was incubated at 30° C. for 20 minutes. The reaction was quenched by admixing with 1 ml of anion exchange resin slurry (AG1-X8, 200-400 meshes, chloride form; Bio-Rad) to absorb unreacted substrates. After the reaction stopped, the mixture was centrifuged at 800×g for 10 minutes, and the resulting supernatant was collected with vials in 250 μl aliquots. To each vial was added 5 ml of ACS-II (scintillator, Amersham). The radioactivity was measured with a liquid scintillator counter for [^3H]-adenosine and set as the PDE IV activity.

Data set [2] deals with actively sensitized guinea pigs. Briefly: Inhibition of antigen-induced immediate asthmatic response (airway resistance, Konzett-Rossler). Conditions: Cavia porcellus, oral, 60 minutes prior to antigen-challenge, reduction of increase in airway resistance, read-out: Inhibition of Asthmatic response ED50: mg/kg orally. Format: in vivo, Hartley guinea pigs. As to the method:
Male Hartley outbred guinea pigs were sensitized by administering intraperitoneally physiological saline (0.5 ml) containing ovalbumin (1 mg, antigen) and 5×10^9 inactivated Bordetella pertussis dead cells (adjuvant). Eleven to thirteen days after the first sensitization, 0.05 ml of an ovalbumin solution (1 mg/ml) (ovalbumin is dissolved in physiological saline) was administered to the lateroabdominal region of each guinea pig intracutaneously. An establishment of sensitization was checked relying on cutaneous reaction. Only guinea pigs wherein significant reddening responses occurred 5 to 10 minutes later were employed in the next measurement test for airway resistance.
The guinea pigs (3 animals per group) actively sensitized in the above step (1) were employed to measure for their airway pressure according to Konzett-Rossler method (Arch. Exp. Path. Pharmakol., 195, 71 (1940)).
Thirteen days after the final sensitization, guinea pigs fasted overnight, and were on the next day anesthetized with a pentobarbital solution (30 mg/1.2 ml/kg, dissolved in physiological saline, intraperitoneal administration). After the guinea pigs were fixed in a supine position, their trachea was incised followed by insertion with one port of a 4-port cannula. Among the remaining 3 ports, 2 ports were connected to an artificial respirator (Model 683, Harvard). The animals were ventilated with 10 ml/kg of air per ventilation at a rate of 60 beats/min via the artificial respirator from the cannula. One port remainder was connected to a respiratory amplifier (AR-601G, Nihon Kohden, Japan) via an airflow resistance tube (TV-241T, Nihon Kohden, Japan) and a differential pressure transducer (TP-602T, Nihon Kohden, Japan) connected with a control box (RY-111S, Nihon Kohden, Japan). From a catheter inserted into a left carotid artery, blood pressures were monitored with a blood pressure measurement unit (AP641G, NEC Corp., Japan) via a blood pressure transducer (TP-300T, Nihon Kohden, Japan), and heart rates were recorded on a thermal recorder (WT-685G, Nihon Kohden, Japan), relying on blood pressure pulse waves after being led to a cardiograph unit (AT601G, Nihon Kohden, Japan).
After airway pressure became stable, an ovalbumin solution (1 mg/ml, dissolved in physiological saline) was administered at a dose of 1 ml/kg via a tube with which the right jugular vein of guinea pigs was cannulated.
Each test compound was suspended in 0.5% CMC-Na solution and administered orally with an oral sound at a dose of 0.03 to 20 mg/2 ml/kg 60 minutes prior to the antigen-challenge. Control groups received only 0.5% CMC-Na solution in an equivalent amount. The pentobarbital-anesthetization and tracheal incision were conducted 30 minutes prior to the antigen-challenge.
Each percent reduction of increase in airway resistance (each test compound-administered group versus control group) was calculated according to the equation given below. ED50 was obtained by Probit method.

The target of the next data set is T2, CYP2D6 (Homo sapiens, UniProt P10635).
T2 construct: purchased BD Biosciences, NJ, USA; host or cells: CYP2D6-expressing system microsomes
T2 sequence (P10635 whole entry): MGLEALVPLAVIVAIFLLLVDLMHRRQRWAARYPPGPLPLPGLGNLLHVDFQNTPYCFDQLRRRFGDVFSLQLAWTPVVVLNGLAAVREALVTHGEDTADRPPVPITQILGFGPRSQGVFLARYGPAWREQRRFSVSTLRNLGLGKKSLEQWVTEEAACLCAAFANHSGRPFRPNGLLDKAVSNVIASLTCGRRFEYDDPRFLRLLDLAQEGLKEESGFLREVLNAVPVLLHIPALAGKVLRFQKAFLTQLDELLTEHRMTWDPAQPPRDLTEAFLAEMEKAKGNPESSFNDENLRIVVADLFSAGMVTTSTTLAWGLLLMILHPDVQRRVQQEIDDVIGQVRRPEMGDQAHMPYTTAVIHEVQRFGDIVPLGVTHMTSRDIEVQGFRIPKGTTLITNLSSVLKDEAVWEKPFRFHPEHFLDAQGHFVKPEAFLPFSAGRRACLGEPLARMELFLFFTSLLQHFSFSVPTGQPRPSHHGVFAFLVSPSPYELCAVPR
Kind of data set: Inhibition of drug-metabolizing enzyme CYP2D6 (CYP2D6/AMMC kit). Format: in vitro ADME. The conditions noted are these: CYP2D6-expressing microsomes, AMMC substrate, 37° C., 30 minutes; read-out: Inhibition of Drug-Metabolizing Enzymes (IC50; μM) CYP2D6. Here is the method:
The inhibitory effect on CYP2D6 and CYP3A4 was determined using High Throughput Inhibitor Screening Kits: CYP2D6/AMMC and CYP3A4/BFC (both from BD Biosciences, NJ, USA). Briefly, each of NADPH regenerating systems, cofactors, and test compounds was dispensed into 96-well plates, followed by addition of each of fluorescent substrates, AMMC (CYP2D6) or BFC (CYP3A4). To each well were added CYP2D6-expressing system microsomes or CYP3A4-expressing system microsomes, and the plates were incubated at 37° C. for 30 minutes, and then read for fluorescent signals (CYP2D6: ex=390 nm, em=460 nm; CYP3A4: ex=409 nm, em=538 nm wherein excitation wavelength: ex and emission wavelength: em). Thus, each inhibitory efficacy on enzymes CYP2D6 and CYP3A4 was determined. Roflumilast was used for the reference compound in this assay.

Data set [3] deals with lung eosinophil infiltration. Kind of data set: Inhibition of lung eosinophil infiltration (OVA-sensitized, BALF). Format: in vivo, Hartley guinea-pigs. Conditions: Cavia porcellus, guinea-pigs, oral, 1 hour before OVA inhalation, BALF eosinophils at 24 hours, read-out: Inhibition of Lung Eosinophil Infiltration ED50: mg/kg orally. Here is the method: Hartley guinea-pigs were sensitized by inhaling twice 1% ovalbumin (OVA) in a physiological saline for 10 minutes with a nebulizer (Atom Medical Corporation, Japan) at an interval of 1 week. The animals were orally given a suspension of test compounds at a dose of 0.03 to 3 mg/2 mL/kg one week after the final sensitization. One hour later, the animals were exposed to antigens by inhalation of 2% OVA in a physiological saline for 5 minutes with a nebulizer. Thirty minutes before the antigen challenge, the animals were intraperitoneally pretreated with pyrilamine at a dose of 10 mg/kg to avoid fatality due to anaphylactic shock. Bronchoalveolar lavage fluid (BALF) samples were collected 24 hours after the exposure by inhalation of antigens, and eosinophils were counted.

Another data set concerns Beagle dogs. Briefly: Emetic action on dogs. The class given is in vivo. The conditions noted are these: oral, 1 mg/kg. Here is the method: Beagle dogs received a suspension of each test compound in 0.5% CMC-Na solution orally at a dose of 1 mg/2 mL/kg.

Consider `O=c1c2c(Cc3ccccc3)n[nH]c2c2cccnc2n1-c1ccccc1` [Example No. 9, 3-benzyl-5-phenyl-1H-pyrazolo[4,3-c][1,8]naphthyridin-4 (5H)-one], for which the values for the half-maximal inhibitory concentration (IC50) (in data set [1]; on CYP2D6) were 0.084 µM and above 10 µM, respectively. Also, the figures for the ED50 in data set [2] and in data set [3] were 0.16 mg/kg and below 0.03 mg/kg, respectively. Also, the Occurrence of emesis entry with Beagle dogs is listed as “no observation for emetic actions”.
On to `O=c1c2c(Cc3ccc(F)cc3)n[nH]c2c2cccnc2n1-c1ccccc1` [Example No. 33, 3-(4-fluorobenzyl)-5-phenyl-1H-pyrazolo[4,3-c][1,8]naphthyridin-4 (5H)-one], for which the IC50 (commonly the concentration that gives 50% inhibition) was 0.068 µM in data set [1] and above 10 µM on CYP2D6. In addition, the ED50 in data set [2] was 0.33 mg/kg; in data set [3], 0.03 mg/kg. Besides, in the data set with Beagle dogs, the Occurrence of emesis result is “no observation for emetic actions”.
